{
  "source": "ChEMBL document CHEMBL1201862",
  "about": "“PubChem BioAssay data set” (2004)",
  "key": {"[1]": {"target": "T1, Adenosylmethionine-8-amino-7-oxononanoate aminotransferase (Mycobacterium tuberculosis, UniProt P9WQ81)", "T1 sequence (P9WQ81 whole entry)": "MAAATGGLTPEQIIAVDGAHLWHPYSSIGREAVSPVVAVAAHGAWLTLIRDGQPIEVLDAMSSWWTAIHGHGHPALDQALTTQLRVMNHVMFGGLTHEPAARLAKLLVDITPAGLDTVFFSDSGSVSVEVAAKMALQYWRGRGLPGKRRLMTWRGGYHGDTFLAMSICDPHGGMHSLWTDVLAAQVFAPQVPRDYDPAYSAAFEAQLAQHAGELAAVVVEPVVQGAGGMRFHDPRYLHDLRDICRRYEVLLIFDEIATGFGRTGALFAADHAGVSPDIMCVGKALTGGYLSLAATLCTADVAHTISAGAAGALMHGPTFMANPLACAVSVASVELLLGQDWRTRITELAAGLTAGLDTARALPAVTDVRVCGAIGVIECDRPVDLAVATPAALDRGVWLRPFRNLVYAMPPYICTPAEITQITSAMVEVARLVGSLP", "test": "Mycobacterium tuberculosis BioA enzyme inhibitor Measured in Biochemical System Using Plate Reader - 2163-02_Inhibitor_Dose_CherryPick_Activity.", "format": "functional, Mycobacterium tuberculosis UT205"}, "Protein Tat": {"target": "T2, Protein Tat (Human immunodeficiency virus type 1 group M subtype B (isolate HXB2)(HIV-1), UniProt P04608)", "T2 sequence (P04608 whole entry)": "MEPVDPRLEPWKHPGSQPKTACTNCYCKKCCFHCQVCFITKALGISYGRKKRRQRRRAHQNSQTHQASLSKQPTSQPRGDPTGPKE", "format": "functional"}, "[2]": {"target": "T3, Corticotropin-releasing factor receptor 2/Corticotropin-releasing factor-binding protein (Homo sapiens, UniProt P24387+Q13324)", "T3 sequence (Q13324 whole entry)": "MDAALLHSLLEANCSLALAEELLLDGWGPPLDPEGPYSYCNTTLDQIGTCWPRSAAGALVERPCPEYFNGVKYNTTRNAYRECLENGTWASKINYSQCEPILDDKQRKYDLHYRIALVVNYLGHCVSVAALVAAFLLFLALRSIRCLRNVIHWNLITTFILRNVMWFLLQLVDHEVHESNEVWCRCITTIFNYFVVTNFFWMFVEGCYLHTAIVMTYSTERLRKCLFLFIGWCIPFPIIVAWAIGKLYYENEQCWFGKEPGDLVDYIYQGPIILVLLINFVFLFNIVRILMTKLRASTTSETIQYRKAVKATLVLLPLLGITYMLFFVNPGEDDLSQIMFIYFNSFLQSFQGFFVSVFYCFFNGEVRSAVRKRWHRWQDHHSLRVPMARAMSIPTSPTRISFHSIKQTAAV", "T3 sequence (P24387 whole entry)": "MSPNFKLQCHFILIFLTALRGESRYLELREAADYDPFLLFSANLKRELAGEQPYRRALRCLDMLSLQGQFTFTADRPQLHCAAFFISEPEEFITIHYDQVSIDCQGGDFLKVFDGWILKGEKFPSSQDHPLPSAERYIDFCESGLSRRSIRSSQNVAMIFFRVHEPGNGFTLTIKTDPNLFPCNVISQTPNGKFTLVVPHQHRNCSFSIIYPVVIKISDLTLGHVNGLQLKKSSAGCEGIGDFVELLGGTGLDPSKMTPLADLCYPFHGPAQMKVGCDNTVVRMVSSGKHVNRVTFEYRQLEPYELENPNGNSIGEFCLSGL", "test": "Dose Response confirmation of uHTS hits for small molecule antagonists of the CRF-binding protein and CRF-R2 receptor complex.", "format": "functional", "conditions": "read-out: IC50_Mean"}, "[3]": {"test": "CRF-BP/CRF-R2 complex antagonists, dose response, cell-based, uHTS hits, 384-well (AID 651639)", "format": "functional, Homo sapiens", "conditions": "read-out: IC50_Mean"}, "[4]": {"target": "T3, Corticotropin-releasing factor receptor 2/Corticotropin-releasing factor-binding protein", "test": "activators of CRF receptor 2 with binding protein – uHTS hits, confirmation (AID 602473)", "format": "functional", "conditions": "read-out: EC50_Mean"}, "[5]": {"target": "T4, Rac GTPase-activating protein 1 (Homo sapiens, UniProt Q9H0H5)", "T4 sequence (Q9H0H5 whole entry)": "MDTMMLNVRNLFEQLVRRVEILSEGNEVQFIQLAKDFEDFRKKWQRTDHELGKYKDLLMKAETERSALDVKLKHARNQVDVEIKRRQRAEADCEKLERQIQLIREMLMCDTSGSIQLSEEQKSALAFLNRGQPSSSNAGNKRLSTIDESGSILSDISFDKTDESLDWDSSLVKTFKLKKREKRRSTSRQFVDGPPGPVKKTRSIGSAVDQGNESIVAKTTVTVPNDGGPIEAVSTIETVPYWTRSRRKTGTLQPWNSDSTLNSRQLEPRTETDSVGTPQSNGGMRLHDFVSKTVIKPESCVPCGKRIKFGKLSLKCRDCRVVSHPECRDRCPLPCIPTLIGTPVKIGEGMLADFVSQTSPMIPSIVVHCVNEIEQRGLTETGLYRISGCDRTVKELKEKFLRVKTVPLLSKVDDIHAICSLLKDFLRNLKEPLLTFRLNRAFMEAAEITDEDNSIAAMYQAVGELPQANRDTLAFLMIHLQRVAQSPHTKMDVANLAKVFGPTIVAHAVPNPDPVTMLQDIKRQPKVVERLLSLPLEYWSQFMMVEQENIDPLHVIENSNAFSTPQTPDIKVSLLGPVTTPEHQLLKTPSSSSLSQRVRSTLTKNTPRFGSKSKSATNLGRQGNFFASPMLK", "test": "MgcRacGAP GTPase-activating activity inhibitors, confirmation, biochemical, ADP Hunter fluorescence, primary and confirmatory (AID 624330)", "format": "functional"}, "[6]": {"target": "T5, Small ubiquitin-related modifier 1 (Homo sapiens, UniProt P63165)", "T5 sequence (P63165 whole entry)": "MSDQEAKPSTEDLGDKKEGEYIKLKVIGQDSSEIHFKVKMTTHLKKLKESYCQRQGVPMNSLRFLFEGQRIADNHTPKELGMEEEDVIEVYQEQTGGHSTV", "test": "inhibitors of SUMO1 partner interactions, dose response, biochemical, FRET (AID 624383)", "format": "functional", "conditions": "read-out: IC50_Mean"}, "[7]": {"target": "T5, Small ubiquitin-related modifier 1", "test": "inhibitors of SUMO1 peptide binding, dose response, biochemical, fluorescence polarization, uHTS hits (AID 624382)", "format": "functional", "conditions": "read-out: IC50_Mean"}, "[8]": {"target": "T6, Carboxy-terminal domain RNA polymerase II polypeptide A small phosphatase 1 (Homo sapiens, UniProt Q9GZU7)", "T6 sequence (Q9GZU7 whole entry)": "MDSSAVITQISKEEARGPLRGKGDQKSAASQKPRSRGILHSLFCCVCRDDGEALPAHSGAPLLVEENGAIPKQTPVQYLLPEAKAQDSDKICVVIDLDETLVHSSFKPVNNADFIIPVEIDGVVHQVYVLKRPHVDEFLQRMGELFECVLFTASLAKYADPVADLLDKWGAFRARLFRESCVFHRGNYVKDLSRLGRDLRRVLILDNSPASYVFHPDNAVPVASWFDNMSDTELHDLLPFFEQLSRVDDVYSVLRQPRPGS", "test": "inhibitors of CTDSP1, concentration-response testing, biochemical assay, absorbance-based, actives from ultra-high-throughput screening (AID 540297)", "format": "functional"}, "[9]": {"target": "T7, Fructose-bisphosphate aldolase (Mycobacterium tuberculosis, UniProt P9WQA3)", "T7 sequence (P9WQA3 whole entry)": "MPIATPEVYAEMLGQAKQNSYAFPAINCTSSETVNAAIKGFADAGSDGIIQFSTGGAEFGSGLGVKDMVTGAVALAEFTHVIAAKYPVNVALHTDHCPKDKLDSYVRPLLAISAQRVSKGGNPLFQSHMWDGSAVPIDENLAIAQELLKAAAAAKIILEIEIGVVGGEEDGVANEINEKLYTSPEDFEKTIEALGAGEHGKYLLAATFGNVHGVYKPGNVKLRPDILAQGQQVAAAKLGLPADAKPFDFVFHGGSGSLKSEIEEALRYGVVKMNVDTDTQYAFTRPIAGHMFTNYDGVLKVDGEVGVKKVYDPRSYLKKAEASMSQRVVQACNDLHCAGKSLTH", "test": "Fluorescence-based biochemical high throughput dose response assay for inhibitors of the fructose-bisphosphate aldolase (FBA) of M. tuberculosis.", "format": "functional"}, "[10]": {"test": "P. falciparum late gametocyte killing, dose response, luminescence (AID 1117278);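 also: gametocytes exposed to compound for 24 hours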", "format": "functional, cell-based"}, "[11]": {"test": "Jurkat T cell cytotoxicity, dose response, cytotoxicity control for P. falciparum gametocyte viability project, luminescence (AID 1117277);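 also: potency reflects loss of cellular ATP meaning fewer viable cells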", "format": "functional, cell-based"}, "[12]": {"target": "SWI/SNF-related matrix-associated actin-dependent regulator of chromatin subfamily A member 2 (Homo sapiens, UniProt P51531)", "sequence (P51531 whole entry)": "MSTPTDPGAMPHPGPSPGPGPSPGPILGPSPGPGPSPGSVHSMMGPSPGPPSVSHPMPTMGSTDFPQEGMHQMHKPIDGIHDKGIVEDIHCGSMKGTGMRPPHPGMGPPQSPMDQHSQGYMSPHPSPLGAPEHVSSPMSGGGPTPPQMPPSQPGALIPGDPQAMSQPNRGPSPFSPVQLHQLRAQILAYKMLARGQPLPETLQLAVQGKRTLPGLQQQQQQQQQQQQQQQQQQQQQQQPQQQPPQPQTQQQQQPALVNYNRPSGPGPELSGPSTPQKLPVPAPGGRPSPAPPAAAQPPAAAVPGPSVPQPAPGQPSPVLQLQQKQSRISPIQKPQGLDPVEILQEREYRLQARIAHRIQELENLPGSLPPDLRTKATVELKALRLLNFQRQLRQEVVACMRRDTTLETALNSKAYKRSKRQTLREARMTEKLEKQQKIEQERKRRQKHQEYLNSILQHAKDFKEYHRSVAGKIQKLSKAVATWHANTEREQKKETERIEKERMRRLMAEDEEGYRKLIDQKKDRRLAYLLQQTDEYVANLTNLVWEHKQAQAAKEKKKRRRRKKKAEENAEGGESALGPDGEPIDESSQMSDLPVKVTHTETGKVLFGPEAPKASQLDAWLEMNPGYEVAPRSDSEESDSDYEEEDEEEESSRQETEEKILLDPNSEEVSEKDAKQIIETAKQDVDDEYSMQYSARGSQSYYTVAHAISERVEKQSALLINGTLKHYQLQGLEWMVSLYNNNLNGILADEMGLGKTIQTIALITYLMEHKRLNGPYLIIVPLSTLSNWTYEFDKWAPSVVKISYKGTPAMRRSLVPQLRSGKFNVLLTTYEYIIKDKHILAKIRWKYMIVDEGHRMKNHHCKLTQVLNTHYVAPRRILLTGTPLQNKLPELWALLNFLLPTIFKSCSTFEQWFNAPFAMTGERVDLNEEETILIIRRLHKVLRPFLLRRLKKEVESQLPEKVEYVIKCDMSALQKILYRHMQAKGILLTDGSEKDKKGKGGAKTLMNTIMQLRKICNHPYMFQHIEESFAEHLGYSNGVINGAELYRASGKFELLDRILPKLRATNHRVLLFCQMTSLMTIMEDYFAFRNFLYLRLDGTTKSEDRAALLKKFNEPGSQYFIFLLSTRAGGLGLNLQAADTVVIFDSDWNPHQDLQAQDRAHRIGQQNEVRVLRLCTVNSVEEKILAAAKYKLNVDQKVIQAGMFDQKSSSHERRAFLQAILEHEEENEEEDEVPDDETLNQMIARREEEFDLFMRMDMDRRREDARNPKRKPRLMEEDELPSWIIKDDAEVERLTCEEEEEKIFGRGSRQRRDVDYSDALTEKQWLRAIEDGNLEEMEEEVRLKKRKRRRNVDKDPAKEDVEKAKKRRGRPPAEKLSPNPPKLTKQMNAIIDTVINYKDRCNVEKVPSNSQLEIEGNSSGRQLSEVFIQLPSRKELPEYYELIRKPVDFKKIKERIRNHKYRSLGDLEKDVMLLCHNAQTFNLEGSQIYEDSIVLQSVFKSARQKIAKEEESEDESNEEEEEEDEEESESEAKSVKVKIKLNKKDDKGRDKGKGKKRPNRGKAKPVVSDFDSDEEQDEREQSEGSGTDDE", "test": "Luminescence-based cell-based high throughput dose response assay to identify activators of the function of SWI/SNF related, matrix associated, actin dependent regulator of chromatin, subfamily a, member 2 (SMARCA2, BRM).", "format": "functional"}, "[13]": {"test": "Counterscreen for activators of the function of SWI/SNF related, matrix associated, actin dependent regulator of chromatin, subfamily a, member 2 (SMARCA2, BRM): Luminescence-based cell-based high throughput dose response assay to identify non-selective compounds using the VP16 reporter assay.", "format": "functional"}},
  "note": "The source made the active and inactive calls.",
  "data": [
    {"smiles": "COc1cccc(CNC(=O)c2ccc(NC(=O)C3=CSCCO3)cc2)c1", "values": [
      {"measurement": "AC50", "setting": "[1]", "value": "3.61 µM (active)"}
    ]},
    {"smiles": "O=C(c1ccc(=O)oc1)N1CCCc2ccccc21", "values": [
      {"measurement": "IC50", "setting": "Protein Tat", "value": "5.02 µM (inconclusive)"}
    ]},
    {"smiles": "COc1ccc(C(=O)NC(Oc2ccccc2)C(Cl)(Cl)Cl)cc1", "note": "(centres undefined)", "values": [
      {"measurement": "IC50", "setting": "[2]", "value": "5.81 µM (active)"},
      {"measurement": "IC50", "setting": "[3]", "value": "14.5 µM (active)"},
      {"measurement": "EC50", "setting": "[4]", "value": "> 53 µM (inactive)"}
    ]},
    {"smiles": "O=C(Nc1ccc(O)cc1)c1cccc(Oc2ccc([N+](=O)[O-])cc2)c1", "values": [
      {"measurement": "IC50", "setting": "[2]", "value": "25.9 µM (active)"},
      {"measurement": "IC50", "setting": "[5]", "value": "41.8 µM (active)"},
      {"measurement": "IC50", "setting": "[3]", "value": "> 20 µM (inactive)"},
      {"measurement": "EC50", "setting": "[4]", "value": "> 53 µM (inactive)"}
    ]},
    {"smiles": "CC(=O)c1ccc(NC(=O)c2cccc(N3C(=O)c4ccccc4C3=O)c2)cc1", "values": [
      {"measurement": "IC50", "setting": "[6]", "value": "3.13 µM (active)"},
      {"measurement": "IC50", "setting": "[7]", "value": "> 66.6 µM (inactive)"},
      {"measurement": "IC50", "setting": "[8]", "value": "9.44 µM (active)"}
    ]},
    {"smiles": "N=c1c(C(=O)NC2CCCCC2)cc2c(=O)n3ccccc3nc2n1Cc1ccco1", "values": [
      {"measurement": "IC50", "setting": "[9]", "value": "3.71 µM (active)"}
    ]},
    {"smiles": "CCOc1ccccc1CNCCNC(=O)c1nonc1N", "values": [
      {"measurement": "IC50", "setting": "[10]", "value": "> 109 µM (inactive)"},
      {"measurement": "IC50", "setting": "[11]", "value": "> 83.3 µM (inactive)"}
    ]},
    {"smiles": "CC(=O)c1ccc(-c2cnc3c(NC=O)cc(-c4ccc(N5CCN(C)CC5)cc4)cn23)cc1", "values": [
      {"measurement": "EC50", "setting": "[12]", "value": "56 µM (inactive)"},
      {"measurement": "EC50", "setting": "[13]", "value": "> 91.2 µM (inactive)"}
    ]},
    {"smiles": "C/C=C/c1ccc2c(c1)O[C@@H](CN(C)C(=O)c1ccc3c(c1)OCO3)[C@@H](C)CN([C@@H](C)CO)S2(=O)=O", "values": [
      {"measurement": "AC50", "setting": "[1]", "value": "5.33 µM (active)"}
    ]},
    {"smiles": "CC1(C(=O)Nc2ccccc2)Cc2c(-c3ccc4c(c3)OCO4)ccnc2O1", "note": "(centres undefined)", "values": [
      {"measurement": "IC50", "setting": "[9]", "value": "2.52 µM (active)"}
    ]}
  ]
}
